# Source: patent US20140148446A1, “COMPOUNDS THAT ENABLE ALTERNATIVE MITOCHONDRIAL ELECTRON TRANSFER” (University of North Texas Health Science Center, priority 2010, published 2014)
# Tests used:
# [1] = tested on: mitochondrial complex I-III; assay type: biochemical, rat
# Description: (§1) Fresh rat heart was removed and placed in ice-cold mitochondrial isolation buffer containing 210 mM mannitol, 70 mM sucrose, 5 mM HEPES, and 1 mM EDTA, pH 7. The heart was homogenized immediately, and the mitochondrial fraction was isolated by differential centrifugation as described previously (Trounce et al., 1996). Mitochondria were stored at −80° C. until subsequent analysis.
# All mitochondrial activity assays were performed according to previous publications with minimal modifications for complex I (Lenaz et al., 2004), complex I-III, complex II, complex III, and II-III (Trounce et al., 1996). […] Complex I activity was monitored by adding NADH to the mix with or without rotenone/antimycin A. The final data were normalized to blank values at time zero. The reaction was monitored in a kinetic spectrophotometer at 340 nm. Complex I activity was measured in arbitrary units and normalized to control levels for statistical analysis. Isolated mitochondria equivalent to 40-200 μg mitochondrial protein was used for each assay, except for assays with inhibitors, when larger amount of mitochondria (3 to 5 folds) were used to ensure that inhibition was distinguishable. Final data were normalized to control levels. For complex I-III activity, the reaction was initiated with the addition of NADH, cyt c was used as final substrate and its reduction was monitored at 550 nm. For assay of complex II-III activity, succinate was added instead of NADH, and the electron transfer to cyt c was performed according to previous publications (Atamna et al., 2008). To test whether the electrons from the reduced form of MB (MBH2) can be transferred to cyt c in mitochondrial lysate, we added 10 μM 2,7-dichlorofluorescin (DCFH, Invitrogen, Carlsbad, Calif.) to the reaction system. Free radicals convert non-fluorescent DCFH to highly fluorescent DCF (Ex, 488 nm, and Em, 530 nm). In the presence of cyt c, which accepts electrons from MBH2, conversion of DCFH to DCF is decreased.
# HT-22 cells [2] = assay: Protection against mitochondrial membrane potential collapse induced by glutamate in HT-22 cells; assay type: cell-based; conditions: Mus musculus
# [3] = pH 7.0; cited from earlier work
# [4] = tested on: rotenone induced rat model of PD; assay: Rotenone model of PD: body weight, neurological and behavioral assessment; assay type: in vivo; conditions: MB 500 μg/kg/day i.p.
# Description: (§3) Rats were assigned to three groups: control animals received vehicle infusion and daily saline injection (Veh/Sal N=6-8); a second group received rotenone infusion at the dose of 5 mg/kg/day and daily saline injection (ROT/Saline N=8-11); and the third group received rotenone infusion (5 mg/kg/day) and MB injection at the dose of 500 μg/kg/day (ROT/MB N=8-10). Vehicle or rotenone was infused via Alzet osmotic mini pumps that were filled with vehicle or rotenone dissolved in vehicle (equal volumes of dimethylsulfoxide and polyethylene glycol). Pumps containing vehicle or rotenone were sterilized with UV irradiation and implanted subcutaneously on the back. Intraperitoneal injections were administered with normal saline or MB, 500 μg/kg/day, diluted in normal saline to 500 μl of final volume. Rats were sacrificed on day 8 at four hours after last dose of MB or saline treatment.
# The accelerating rotarod, a motor driven treadmill (Omnitech Electronics, Columbus, Ohio) measures running coordination and motor performance. The rotor consisted of a nylon cylinder with a 7 cm diameter mounted horizontally 35.5 cm above a padded surface. On a given trial, the rats were placed on the cylinder, the cylinder was rotated, and a timer switch was simultaneously activated. Acceleration continued from 0 to a maximum of 44 rpm until animals were unable to stay on top of the rotating rod and fell to the padded surface. […] When the rat landed on the surface, a photosensitive switch was tripped and the timer stopped. Rats were subjected to this test two sessions a day, three trials per session, for 7 sessions. A 20-minute resting period was given between each trial. Animals were given at least two hours break time between sessions each day. Retention times on the rotating treadmill were recorded and plotted for analysis.
# Neurological assessment was performed by three evaluators blind to treatment conditions. The evaluators were initially trained until they produced consistent scores when evaluating rats in these tests. Subsequently, experimental subjects were randomized and presented to the evaluators individually. For each session, which consisted of three trials, an individual evaluator scored a rat in only one trial; thus, the final score for a session for each animal was the average score of the three evaluators. The category included: tremor; locomotion; bradykinesia; hypokinesia; posture; and gross motor skills.
# Catalepsy was measured by standard bar test and grid test adapted from previous publication. For bar test, the rats were placed with both front paws grasp on a horizontal bar which was 9 cm above the surface. The time, each animal took to remove one paw from the bar was manually measured by a stopwatch. For grid test, rats were placed on a vertical wire grid (25.5 cm width and 44 cm high with a space of 1 cm between each wire) and catalepsy was determined by the length of time the animals maintained all four paws on the grid using a stopwatch. The maximum descent latency was set at 300 seconds for the bar test and 60 seconds for grid test.
# For gait analysis, the fore and hind paws of each rat were painted with blue and red dye, respectively. The animals were allowed to walk across an absorbent paper covered straight alley runway (150 cm long, 20 cm wide, opaque walls 20 cm tall) into a dark compartment. Before the test, animals were put in the dark compartment for 2 minutes to habituate to the environment and 3 pre-training runs were conducted for all rats. Three trials were conducted to obtain clear footprints for each animal. Prolonged stop or turning backward in the runway was considered failed trials. The distance of individual steps were analyzed by two independent blinded observers.
# HT-22 cells [5] = assay: Mitochondrial superoxide and cellular ROS analysis, rotenone treated cells; assay type: cell-based; conditions: MB 100 ng/ml
# Description: Mitochondrial specific superoxide and cellular ROS were measured with specific fluorescent probes. Briefly, HT-22 cells were treated with vehicle or 2 μM rotenone, with or without 100 ng/ml MB for 4 hr. The cells were dissociated, then incubated in pre-warmed PBS containing 0.5% BSA and H2DCFDA (Cellular ROS) or MitoSox (mitochondrial superoxide) for 15 min at 37° C., followed by washing with PBS. The cells were then resuspended in supplemented RPMI-1640 for further incubation. The cells were analyzed with FITC channel (Cellular ROS), or PE channel (MitoSox) using a BD™ LSRII flow cytometer.
# HT-22 cells [6] = assay: Protection against cell death (cell viability) induced by glutamate in HT-22 cells; assay type: cell-based; conditions: Mus musculus
# Description: HT-22 cells (gift from Dr. David Schubert, Salk Institute, San Diego, Calif.) were plated at 4,000 cells per well in 96 well plates and cultured over night. […] At the end of the 24 hours, the medium was removed and the plates were rinsed with PBS and incubated with 10 μM calcein-AM (Invitrogen, Carlsbad, Calif.) in PBS for 20 minutes. […] Cell culture wells treated with bleach before rinsing were used as blank.
# HT-22 cells [7] = assay: Cell viability assay, rotenone induced cytotoxicity; assay type: cell-based; conditions: rotenone 8 μM, 100 ng/ml MB co-treatment; vehicle 25.4±1.6%
# Description: Then cells were treated with vehicle (DMSO), rotenone (2-8 μM), antimycin A (1-10 μg/ml), or glucose oxidase (2-10 mU) in the presence or absence of various concentrations of MB for 24 hours. At the end of the 24 hours, the medium was removed and the plates were rinsed with PBS and incubated with 10 μM calcein-AM (Invitrogen, Carlsbad, Calif.) in PBS for 20 minutes. Fluorescence was determined using a TECAN M200 microplate reader (San Jose, Calif.) with an excitation/emission set at 485/530 nm. Cell culture wells treated with bleach before rinsing were used as blank.
# [8] = tested on: rotenone induced rat model of PD
# Description: as §3
# After completion of neurological assessments and behavioral tests, rats were killed on the 8th day of rotenone infusion under anesthesia induced by xylazine (20 mg/kg, i.p.) and ketamine (100 mg/kg, i.p.). All osmotic pumps were checked for the residual liquid to ensure proper drug delivery. One hemisphere was fixed by 4% paraformaldehyde in phosphate buffer for 48 hr until processing for sectioning. The other hemisphere was snap-frozen in liquid nitrogen, and kept at −80° C. until extraction for biochemical analysis.
# Rat hemispheres were sequentially incubated in 10%, 20% and 30% sucrose over night. The brains were then frozen in optimal cutting temperature) compound (VWR, San Francisco Calif.) and sectioned in the coronal plane with a cryostat to produce 20 μm floating sections. For single immunohistochemistry studies, 20-μm sections were blocked with 5% normal goat serum and incubated in primary antibodies at 4° C. over night. […] Double stained sections were examined with conventional fluorescence microscopy, and images were captured on a Zeiss microscope linked to an image analysis system with selective filter sets to visualize FITC, rhodamine, and DAPI separately. […]
# [9] = tested on: transient MCA occlusion in rats; assay: Transient focal cerebral ischemia (MCA occlusion); assay type: in vivo; conditions: rat, single dosage of MB at 500 μg/kg, 24 hr after reperfusion
# Description: Transient focal cerebral ischemia was induced by intraluminal filament MCA occlusion (Liu et al., 2005). Briefly, the left internal carotid artery (ICA) was exposed, and a 3-0 monofilament nylon suture was introduced into the ICA lumen through a puncture and gently advanced to the distal ICA until proper resistance was felt. After 1 hr, the suture was withdrawn for reperfusion. At 24 hr after reperfusion, the animals were sacrificed and the brain harvested. The brains were sectioned at 3, 5, 7, 9, 11, 13 and 15 mm posterior to the olfactory bulb. Each slice was incubated 30 min in 2% 2,3,5-triphenyltetrazolium chloride (TTC) in physiological saline, then fixed in 10% formalin. The stained slices were digitally photographed for measurement of ischemic lesion volume (Image-Pro Plus 4.1).
# HT-22 cells [10] = assay: Seahorse XF-24 metabolic flux analysis (OCR, ECAR); assay type: cell-based
# Description: HT22 cells were plated at 8,000/well and cultured on Seahorse XF-24 plates. Cells were grown in previously described medium and environments for 24 hr. On the day of metabolic flux analysis, cells were changed to unbuffered DMEM (DMEM base medium supplemented with 25 mM glucose, 10 mM sodium pyruvate, 31 mM NaCl, 2 mM GlutaMax, pH 7.4) and incubated at 37° C. in a non-CO2 incubator for 1 hr. All medium and injection reagents were adjusted to pH 7.4 on the day of assay. Four baseline measurements of oxygen consumption rate (OCR) and extracellular acidification rate (ECAR) were taken before sequential injection of mitochondrial inhibitors. Specific readings indicated by the arrows were taken after each addition of mitochondrial inhibitor before injection of the subsequent inhibitors. The mitochondrial inhibitors used were oligomycin (10 μM), FCCP (1 μM), and rotenone (5 μM). OCR and ECAR were automatically calculated and recorded by the Seahorse XF-24 software. After the assays, plates were saved and protein readings were measured for each well to confirm equal cell numbers per well. The percentage of change compared with the basal rates was calculated as the value of change divided by the average value of baseline readings.
# [11] = tested on: mitochondrial complex II-III; assay: Mitochondrial complex II-III activity in extracted mitochondria; assay type: biochemical, rat; conditions: with and without antimycin A
# Description: as §1
# (§2) All mitochondrial activity assays were performed according to previous publications with minimal modifications for complex I (Lenaz et al., 2004), complex I-III, complex II, complex III, and II-III (Trounce et al., 1996). […] Complex I activity was monitored by adding NADH to the mix with or without rotenone/antimycin A. The final data were normalized to blank values at time zero. The reaction was monitored in a kinetic spectrophotometer at 340 nm. Complex I activity was measured in arbitrary units and normalized to control levels for statistical analysis. Isolated mitochondria equivalent to 40-200 μg mitochondrial protein was used for each assay, except for assays with inhibitors, when larger amount of mitochondria (3 to 5 folds) were used to ensure that inhibition was distinguishable. Final data were normalized to control levels. For complex I-III activity, the reaction was initiated with the addition of NADH, cyt c was used as final substrate and its reduction was monitored at 550 nm. […]
# [12] = tested on: preclinical animal model of Alzheimer's disease; assay: Preclinical animal model of Alzheimer's disease, MB supplemented diet; assay type: in vivo; conditions: long term feeding of MB supplemented diet
# [13] = tested on: mitochondrial complex III; assay: Mitochondrial complex III activity assay; assay type: biochemical, rat; conditions: data not shown
# Description: as §1, §2
# HT-22 cells [14] = assay: Protection against ROS production induced by glutamate in HT-22 cells; assay type: cell-based; conditions: Mus musculus
# HT-22 cells [15] = assay: Cell viability assay, H2O2 (glucose oxidase) induced cytotoxicity; assay type: cell-based
# mitochondrial complex II = molecular target: T1, mitochondrial complex II (Rattus norvegicus, UniProt P21913+Q641Z9+Q6PCT8+Q920L2); assay: Mitochondrial complex II activity assay; assay type: biochemical; conditions: data not shown
# T1 construct: the mitochondrial fraction was isolated by differential centrifugation; from tissue; host or cells: rat heart mitochondria
# T1 sequence (Q920L2 35-656): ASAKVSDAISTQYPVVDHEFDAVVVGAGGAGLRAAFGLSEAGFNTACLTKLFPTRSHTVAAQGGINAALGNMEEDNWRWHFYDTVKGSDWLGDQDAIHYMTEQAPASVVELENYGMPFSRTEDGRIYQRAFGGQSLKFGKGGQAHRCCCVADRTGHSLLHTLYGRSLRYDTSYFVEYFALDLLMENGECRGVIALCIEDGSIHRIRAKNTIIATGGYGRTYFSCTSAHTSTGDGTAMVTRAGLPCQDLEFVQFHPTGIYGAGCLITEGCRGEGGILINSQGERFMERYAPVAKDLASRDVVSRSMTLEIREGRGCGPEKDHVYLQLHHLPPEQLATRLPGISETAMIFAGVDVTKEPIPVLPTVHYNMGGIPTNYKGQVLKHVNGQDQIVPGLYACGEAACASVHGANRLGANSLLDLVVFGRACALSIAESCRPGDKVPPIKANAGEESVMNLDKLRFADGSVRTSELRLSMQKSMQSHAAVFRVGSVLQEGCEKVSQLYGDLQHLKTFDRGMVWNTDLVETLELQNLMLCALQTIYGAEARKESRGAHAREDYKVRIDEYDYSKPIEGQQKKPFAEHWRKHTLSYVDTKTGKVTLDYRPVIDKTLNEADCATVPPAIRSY
# T1 sequence (P21913 31-282): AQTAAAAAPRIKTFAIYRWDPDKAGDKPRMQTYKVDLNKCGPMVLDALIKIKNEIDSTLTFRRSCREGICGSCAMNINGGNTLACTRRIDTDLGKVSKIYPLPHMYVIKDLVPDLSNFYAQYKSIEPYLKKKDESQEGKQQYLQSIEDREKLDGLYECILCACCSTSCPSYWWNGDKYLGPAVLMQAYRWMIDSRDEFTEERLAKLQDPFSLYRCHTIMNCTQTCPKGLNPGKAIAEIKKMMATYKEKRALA
# T1 sequence (Q641Z9 1-169): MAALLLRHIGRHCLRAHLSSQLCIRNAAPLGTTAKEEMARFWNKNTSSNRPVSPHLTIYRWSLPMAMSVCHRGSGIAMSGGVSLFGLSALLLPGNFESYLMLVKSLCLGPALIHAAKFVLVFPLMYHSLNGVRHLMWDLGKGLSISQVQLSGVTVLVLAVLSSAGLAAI
# T1 sequence (Q6PCT8 57-159): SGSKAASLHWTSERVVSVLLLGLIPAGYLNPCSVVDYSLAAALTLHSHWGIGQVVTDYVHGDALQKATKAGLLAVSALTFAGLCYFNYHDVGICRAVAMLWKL
# Description: as §1, §2
structure (smiles),measurement,setting,value
CN(C)c1ccc2nc3ccc(=[N+](C)C)cc-3sc2c1 [methylene blue],"Complex I-III activity, % of the control level","[1]; 1 μg/ml MB, in the presence of antimycin A",674±99%
same,"Complex I-III activity, % of control","[1]; 1 μg/ml MB, in the presence of rotenone",118.1±6.4%
same,Increase of complex I-III activity,[1]; increasing doses of MB (0.1-1 μg/ml),up to nine-fold increase
same,EC50,HT-22 cells [2],17.7 nM
same,Redox potential,[3],11 mV
same,"Catalepsy, bar test descent latency",[4],completely reversed
same,"Catalepsy, grid test latency to fall",[4],attenuated
same,Neurological scores (randomized blinded assessment),[4],significantly improved
same,Rotarod performance deficits,[4],almost completely prevented
same,Rotenone induced body weight loss,[4],attenuated
same,Stride length in gait analysis,[4],improved
same,Increase of mitochondrial superoxide (MitoSox probe),HT-22 cells [5],almost completely blocked
same,Increase of total cellular ROS (DCFH2-DA),HT-22 cells [5],almost completely blocked
same,EC50,"HT-22 cells [6]; HT-22, glutamate toxicity, HT22 cells, read-out: EC50 against glutamate toxicity in HT22 cells",0.176 nM
same,EC50,"HT-22 cells [6]; glutamate, HT-22 cells, read-out: Protection against cell death (EC50)",18.8 nM
same,Cell survival,HT-22 cells [7],60.5±4.5%
same,TH-positive cells and nerve fiber in SNC and VTN,[8]; ROT/MB animals,a sufficient amount of TH-positive cell and nerve fiber were observed
same,Fluoro-jade B-positive TH neurons,"[8]; ROT/MB group, 4 out of 11 ROT/Sal animals positive",not found
same,Ubiquitin positive inclusion bodies,"[8]; ROT/MB group, 6 out 11 ROT/Sal rats positive",not found
same,Ischemic lesion volume,[9],significantly reduced
same,Extracellular acidification rate (ECAR),"HT-22 cells [10]; 10 μg/ml MB, two hour incubation, vehicle 44±4",9±3 mPH/min
same,Oxygen consumption rate (OCR),"HT-22 cells [10]; 10 μg/ml MB, two hour incubation, vehicle 264±10",594 ± 19 pmol/min
same,Rotenone induced OCR inhibition,HT-22 cells [10]; rotenone 5 μM injection,dose-dependently attenuated
same,Effect on complex II-III activity,[11],no significant effects
same,Cognitive functions,[12],improves cognitive functions
same,Maximal performance,[12],improves maximal performance
same,Effect on complex III activity alone,[13],no significant effect
same,EC50,HT-22 cells [14],20.4 nM
same,Protection against H2O2 induced oxidative damage,HT-22 cells [15],failed to protect
same,Effect on complex II activity alone,mitochondrial complex II,no significant effect
